Measurements taken from patent publication US10328060B2, “Certain protein kinase inhibitors” (Shanghai Fochon Pharmaceutical Co., Ltd., priority 2014, dated 2019).

Experiments:
WSU-NHL = WSU-NHL cell viability assay (CellTiter-Glo); assay type: cell-based; settings: WSU-NHL cells, 48 h
Experimental: The cancer cell line WSU-NHL (DSMZ number: ACC 58) was maintained in RPMI-1640 medium with 10% FBS, at 37° C. in an atmosphere of 5% CO2. The tumor cells were routinely sub-cultured twice weekly by trypsin-EDTA treatment. The cells growing in an exponential growth phase were harvested, counted, and planted in 96-well plated by 5000 cells/well. After 24 hours' culture, the series diluted test articles were added into wells, then return the assay plate into the incubator and continue culture for 48 h. At the ending point of incubation, the assay plates were detected by Promega CellTiter-Glo Luminescent Cell Viability Assay Kit (Promege 7572), and the luminescence record of each well was read by the 2104 EnVision plate reader. The data were interpreted by GraphPad Prism5 software.

SU-DHL-6 cell = SU-DHL-6 cell proliferation assay (MTS); assay type: cell-based; settings: SU-DHL-6 cells, 48 h
Experimental: To investigate whether a compound is able to inhibit the activity of PI3K in cells, a mechanism-based assay using SU-DHL-6 cell (ATCC number: CRL 2959) was developed. In this assay, inhibition of PI3K-6 was detected by the inhibition of SUDHL-6 cells proliferation. SU-DHL-6 cells were cultured in culture flasks to 40-80% confluence in RPMI-1640 plus 10% fetal bovine serum. Cells were collected and plated onto 96-well-plates at 30000/well. Plates were incubated overnight at 37° C., with 5% CO2 to adhere. Compounds were added to the plates. Final compound concentrations were […], 123.5, 41.2, 13.7, 4.6 and 1.5 nM. Place plates at 37° C., with 5% CO2 for 48 h. After removing the medium, 20 μl MTS/100 μl medium mixture solution were added to each well and incubate the plates for exactly 2 hours. Stop the reaction by adding 25 μl 10% SDS per well. Measure absorbance at 490 nm and 650 nm (reference wavelength). IC50 was calculated using GraphPad Prism 5.0.

| Compound | IC50 (WSU-NHL; Homo sapiens) [nM] | IC50 (SU-DHL-6 cell; Homo sapiens) [nM] | further results |
| --- | --- | --- | --- |
| CC(Nc1ncnc2[nH]cnc12)c1cc2scc(Cl)n2c(=O)c1-c1ccccc1 (centres unmarked) [Example 14, 7-(1-((9H-purin-6-yl)amino)ethyl)-3-chloro-6-phenyl-5H-thiazolo[3,2-a]-pyridin-5-one] | 49 | 8.5 |  |
| CCC(Nc1ncnc2[nH]cnc12)c1cc2scc(C(F)(F)F)n2c(=O)c1-c1ccccc1 (centres unmarked) [Example 19] |  | 17 |  |
| Cc1nc(N)nc(NC(C)c2cc3scc(C)n3c(=O)c2-c2ccccc2)c1C#N (centres unmarked) [Example 26, 2-amino-4-methyl-6-((1-(3-methyl-5-oxo-6-phenyl-5H-thiazolo[3,2-a]pyridin-7-yl)ethyl)amino)pyrimidine-5-carbonitrile] | < 9 |  |  |
| Cc1nc(N)nc(NC(C)c2cc3scc(Cl)n3c(=O)c2-c2cccc(F)c2)c1C#N (centres unmarked) [Example 27, 2-amino-4-((1-(3-chloro-6-(3-fluorophenyl)-5-oxo-5H-thiazolo[3,2-a]pyridin-7-yl)ethyl)amino)-6-methylpyrimidine-5-carbonitrile] | < 9 |  |  |
| Cc1csc2cc(C(C)Nc3ncnc4[nH]cnc34)c(-c3ccccc3F)c(=O)n12 (centres unmarked) [Example 7, 7-(1-((9H-purin-6-yl)amino)ethyl)-6-(2-fluorophenyl)-3-methyl-5H-thiazolo[3,2-a]pyridin-5-one] |  | 13 |  |
| O=c1c(-c2cccc(F)c2)c(C(Nc2ncnc3[nH]cnc23)C2CC2)cc2scc(C(F)(F)F)n12 (centres unmarked) [Example 22, 7-(((9H-purin-6-yl)amino)(cyclopropyl)-methyl)-6-(3-fluorophenyl)-3-(trifluoromethyl)-5H-thiazolo[3,2-a]-pyridin-5-one] |  | 186 |  |
| Cc1csc2cc(C(C)Nc3ncnc4[nH]cnc34)c(-c3ccc(F)cc3)c(=O)n12 (centres unmarked) [Example 5, 7-(1-((9H-purin-6-yl)amino)ethyl)-6-(4-fluorophenyl)-3-methyl-5H-thiazolo[3,2-a]pyridin-5-one] |  | 72 |  |
| CCC(Nc1ncnc2[nH]cnc12)c1cc2scc(C(F)(F)F)n2c(=O)c1-c1cccc(F)c1 (centres unmarked) [Example 17, 7-(1-((9H-purin-6-yl)amino)propyl)-6-(3-fluorophenyl)-3-(trifluoromethyl)-5H-thiazolo[3,2-a]pyridin-5-one] |  | 85 |  |
| CCC(Nc1ncnc2[nH]cnc12)c1cc2scc(C)n2c(=O)c1-c1cccc(F)c1 (centres unmarked) [Example 11, 7-(1((9H-purin-6-yl)amino)propyl)-6-(3-fluorophenyl)-3-methyl-5H-thiazolo[3,2-a]pyridin-5-one] |  | 12 |  |
| O=c1c(-c2cccc(F)c2)c(C(Nc2ncnc3[nH]cnc23)C2CC2)cc2scc(Cl)n12 (centres unmarked) [Example 20, 7-(((9H-purin-6-yl)amino)(cyclopropyl)methyl)-3-chloro-6-(3-fluorophenyl)-5H-thiazolo[3,2-a]pyridin-5-one] | 39 | 7.8 |  |
| O=c1c(-c2ccccc2)c(C(Nc2ncnc3[nH]cnc23)C2CC2)cc2scc(C(F)(F)F)n12 (centres unmarked) [Example 23, 7-(((9H-purin-6-yl)amino)(cyclopropyl)-methyl)-6-phenyl-3-(trifluoromethyl)-5H-thiazolo[3,2-a]pyridin-5-one] |  | 27 |  |
| CCC(Nc1ncnc2[nH]cnc12)c1cc2scc(C)n2c(=O)c1-c1ccccc1F (stereo not drawn) [Example 10, 7-(l-((9H-purin-6-yl)amino)propyl)-6-(2-fluorophenyl)-3-methyl-5H-thiazolo[3,2-a]pyridin-5-one] |  | 28 |  |
| CC(Nc1ncnc2[nH]cnc12)c1cc2ccccn2c(=O)c1-c1ccccc1 (centres unmarked) [Example 3, 2-(1-(9H-purin-6-ylamino)ethyl)-3-phenyl-4H-quinolizin-4-one] |  | 713 |  |
| CCC(Nc1ncnc2[nH]cnc12)c1cc2scc(Cl)n2c(=O)c1-c1cccc(F)c1 (centres unmarked) [Example 13, 7-(1-((9H-purin-6-yl)amino)propyl)-3-chloro-6-(3-fluorophenyl)-5H-thiazolo[3,2-a]pyridin-5-one] | 36 | 7.5 |  |
| CCC(Nc1ncnc2[nH]cnc12)c1cc2scc(C)n2c(=O)c1-c1ccc(F)cc1 (centres unmarked) [Example 6, 7-(1-((9H-purin-6-yl)amino)propyl)-6-(4-fluorophenyl)-3-methyl-5H-thiazolo[3,2-a]pyridin-5-one] |  | 60 |  |
| CC(Nc1ncnc2[nH]cnc12)c1cc2scc(Cl)n2c(=O)c1-c1cccc(F)c1 (centres unmarked) [Example 12, 7-(1-((9H-purin-6-yl)amino)ethyl)-3-chloro-6-(3-fluorophenyl)-5H-thiazolo[3,2-a]pyridin-5-one] | 24 | 2.7 |  |
| Cc1csc2cc(C(C)Nc3ncnc4[nH]cnc34)c(-c3cccc(F)c3)c(=O)n12 (centres unmarked) [Example 8, 7-(1-((9H-purin-6-yl)amino)ethyl)-6-(3-fluorophenyl)-3-methyl-5H-thiazolo[3,2-a]pyridin-5-one] |  | 7.2 |  |
| CC(Nc1ncnc2[nH]cnc12)c1cc2scc(C(F)(F)F)n2c(=O)c1-c1cccc(F)c1 (centres unmarked) [Example 16, 7-(1-((9H-purin-6-yl)amino)ethyl)-6-(3-fluorophenyl)-3-(trifluoromethyl)-5H-thiazolo[3,2-a]pyridin-5-one] | 87 | 4.4 |  |
| CCc1csc2cc(C(C)Nc3ncnc4[nH]cnc34)c(-c3ccccc3)c(=O)n12 (centres unmarked) [Example 9, 7-(1((9H-purin-6-yl)amino)ethyl)-3-ethyl-6-phenyl-5H-thiazolo[3,2-a]-pyridin-5-one] |  | 103 |  |
| CCC(Nc1ncnc2[nH]cnc12)c1cc2scc(Cl)n2c(=O)c1-c1ccccc1 (centres unmarked) [Example 15, 7-(1-((9H-purin-6-yl)amino)propyl)-3-chloro-6-phenyl-5H-thiazolol[3,2-a]-pyridin-5-one] |  | 44.8 |  |
| O=c1c(-c2ccccc2)c(C(Nc2ncnc3[nH]cnc23)C2CC2)cc2scc(Cl)n12 (centres unmarked) [Example 21, 7-(((9H-purin-6-yl)amino)(cyclopropyl)-methyl)-3-chloro-6-phenyl-5H-thiazolo-[3,2-a]pyridin-5-one] | 20 | 27 |  |
| Cc1csc2cc(C(Nc3ncnc4[nH]cnc34)C3CC3)c(-c3cccc(F)c3)c(=O)n12 (centres unmarked) [Example 25, 7-(((9H-purin-6-yl)amino)(cyclopropyl)methyl)-6-(3-fluorophenyl)-3-methyl-5H-thiazolo[3,2-a]pyridin-5-one] | 47 | 3.6 |  |
| CCC(Nc1ncnc2[nH]cnc12)c1cc2scc(C)n2c(=O)c1-c1ccccc1 (centres unmarked) [Example 2, 7-(1-(9H-purin-6-ylamino)propyl)-3-methyl-6-phenyl-5H-thiazolo[3,2-a]pyridin-5-one] |  | 60 |  |
| Cc1csc2cc(C(Nc3ncnc4[nH]cnc34)C3CC3)c(-c3ccccc3)c(=O)n12 (centres unmarked) [Example 24, 7-(((9H-purin-6-yl)amino)(cyclopropyl)methyl)-3-methyl-6-phenyl-5H-thiazolo[3,2-a]pyridin-5-one] | 16 | 5.7 |  |
| Cc1csc2cc(C(C)Nc3ncnc4[nH]cnc34)c(-c3ccccc3)c(=O)n12 (centres unmarked) [Example 1, 7-(1-(9H-purin-6-ylamino)ethyl)-3-methyl-6-phenyl-5H-thiazolo[3,2-a]pyridin-5-one] |  | 36 |  |
| CC(Nc1ncnc2[nH]cnc12)c1cc2scc(C(F)(F)F)n2c(=O)c1-c1ccccc1 (centres unmarked) [Example 18, 7-(1-((9H-purin-6-yl)amino)ethyl)-6-phenyl-3-(trifluoromethyl)-5H-thiazol-[3,2-a]pyridin-5-one] |  |  | IC50 (WSU-NHL): 95 nM; IC50 (SU-DHL-6 cell): 23 nM |
